The values that follow come from BindingDB's records for doi:10.7270/Q20G3HMV (Burnham Center For Chemical Genomics, 2010).

The target in the test is Envelope glycoprotein gp160 (Human immunodeficiency virus 1, UniProt Q6QLK5). Description: blockers of envelope-mediated cell fusion – luminescence reporter, SAR follow-up (AID 435029).
Chain of Envelope glycoprotein gp160 (Q6QLK5 whole entry, the tested form may be a part): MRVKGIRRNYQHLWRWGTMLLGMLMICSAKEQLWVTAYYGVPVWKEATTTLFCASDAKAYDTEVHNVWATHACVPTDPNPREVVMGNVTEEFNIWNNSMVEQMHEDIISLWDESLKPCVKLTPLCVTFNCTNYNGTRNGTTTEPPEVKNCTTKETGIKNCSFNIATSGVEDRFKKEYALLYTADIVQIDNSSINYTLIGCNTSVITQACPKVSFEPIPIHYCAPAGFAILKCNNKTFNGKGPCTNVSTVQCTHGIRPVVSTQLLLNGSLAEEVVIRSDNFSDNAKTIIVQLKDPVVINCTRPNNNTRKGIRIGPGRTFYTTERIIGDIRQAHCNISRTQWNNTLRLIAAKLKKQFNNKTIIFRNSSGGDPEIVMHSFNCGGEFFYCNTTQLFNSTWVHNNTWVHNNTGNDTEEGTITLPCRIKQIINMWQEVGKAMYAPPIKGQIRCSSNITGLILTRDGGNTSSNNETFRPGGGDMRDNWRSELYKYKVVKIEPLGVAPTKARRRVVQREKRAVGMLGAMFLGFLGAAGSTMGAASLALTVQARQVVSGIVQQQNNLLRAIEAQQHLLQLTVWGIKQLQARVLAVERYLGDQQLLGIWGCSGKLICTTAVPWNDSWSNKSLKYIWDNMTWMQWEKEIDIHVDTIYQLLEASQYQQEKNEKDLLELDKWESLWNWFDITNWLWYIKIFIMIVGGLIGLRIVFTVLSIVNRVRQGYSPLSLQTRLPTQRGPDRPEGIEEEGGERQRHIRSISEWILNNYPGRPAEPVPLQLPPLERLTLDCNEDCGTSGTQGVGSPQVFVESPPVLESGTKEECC
The molecule `COc1ccc(C(=O)Oc2ccc(CN=Nc3ccc(Cl)c(C(=O)O)c3)cc2OC)cc1` [SMR000589907] returned an IC50 of 13 µM.
Regarding `Cc1ccc(S(=O)(=O)Oc2ccc(/C=C3/C(=N)N4C(=NC3=O)SN=C4S(C)(=O)=O)cc2)cc1` [4-methylbenzenesulfonic acid [4-[(Z)-(5-imino-3-methylsulfonyl-7-oxo-[1,2,4]thiadiazolo[4,5-a]pyrimidin-6-ylidene)methyl]phenyl] ester], 8 µM corresponded to half-maximal inhibition (IC50).
The same measure for `Cc1ccc(-n2cccc2/C=C2/C(=N)N3C(=NC2=O)SN=C3S(C)(=O)=O)cc1Cl` [MLS000583163]: 4.6 µM; for `COc1cc(CN=Nc2ccc(Cl)c(C(=O)O)c2)ccc1OC(=O)c1ccccc1F` [SMR000589905]: 68 µM.
Molecule `O=c1/c(=C/c2cc([N+](=O)[O-])cc([N+](=O)[O-])c2O)sc2nc3ccccc3n12` [2-[(2-hydroxy-3,5-dinitrophenyl)methylidene]-1-thiazolo[3,2-a]benzimidazolone] yielded a 50% inhibitory concentration (IC50) of 8.6 µM.
The same measure for `Cc1c(Cl)cccc1NS(=O)(=O)c1ccc2c(c1)C1C=CCC1C(c1ccc(C(=O)O)cc1)N2` (centres undefined): 5.4 µM; for `CC(C)(C)c1cc(-c2cs/c(=N\c3ccccc3)n2Cc2ccc(C(=O)O)cc2)cc(C(C)(C)C)c1O` [4-[[4-(3,5-ditert-butyl-4-oxidanyl-phenyl)-2-phenylazanyl-1,3-thiazol-3-ium-3-yl]methyl]benzoic acid;bromide]: 3.5 µM; for `CCC(C)(C)C1CCc2c(sc(NC(=O)c3ccccc3C(=O)O)c2C#N)C1` (centres undefined) [2-[[3-cyano-6-(2-methylbutan-2-yl)-4,5,6,7-tetrahydro-1-benzothiophen-2-yl]carbamoyl]benzoic acid]: 7.3 µM.
The same measure for `Cc1cc(C)cc(-n2cccc2/C=C2/C(=N)N3C(=NC2=O)SN=C3S(C)(=O)=O)c1` [(6Z)-5-azanylidene-6-[[1-(3,5-dimethylphenyl)pyrrol-2-yl]methylidene]-3-methylsulfonyl-[1,2,4]thiadiazolo[4,5-a]pyrimidin-7-one]: 4.7 µM; for `O=C1Nc2ccc([N+](=O)[O-])cc2C1=NNc1ccccc1C(=O)O` [2-[2-(5-nitro-2-oxidanylidene-indol-3-yl)hydrazinyl]benzoic acid]: over 100 µM.
The same measure for `CCOc1cc(/C=C2\SC(=O)N(CC(=O)Nc3ccccc3F)C2=O)cc([N+](=O)[O-])c1O`: 8.3 µM; for `CSc1nnc(-c2ccccc2N=Cc2c(C)[nH]n(-c3ccc4ccccc4c3)c2=O)c(=O)[nH]1` [MLS000540062]: 16.5 µM; for `COc1cc(/C=N/NS(=O)(=O)c2ccc3ccccc3c2)ccc1OCc1ccc(C(=O)O)cc1` [MLS-0298745.0001]: 31 µM.
In turn, `COC(=O)c1sc(-c2ccc(C(C)(C)C)cc2)cc1NC(=O)c1ccccc1C(=O)O` [SMR000456098] displayed a concentration for half-maximal inhibition (IC50) of 1.5 µM.
The same measure for `COc1cc(CN=Nc2ccc(Cl)c(C(=O)O)c2)ccc1OC(=O)c1ccc(F)cc1` [2-chloro-5-[2-[[4-[(4-fluorophenyl)-oxomethoxy]-3-methoxyphenyl]methylidene]hydrazinyl]benzoic acid]: 30 µM; for `O=C(O)c1cc(N=NCc2ccc(-c3ccccc3)cc2)ccc1Cl` [MLS-0319671.0001]: 10 µM; for `N#C/C(=C\c1ccc(OCc2ccc(Cl)cc2)cc1)C(=O)Nc1cccc(C(=O)O)c1` [MLS-0334991.0001]: over 100 µM.
In the case of `CCOC(=O)C1=C(C)N=c2sc(=Cc3ccc(OCC(=O)O)cc3)c(=O)n2C1c1ccc(OC(C)C)cc1` (centres undefined) [2-[4-[[6-ethoxycarbonyl-7-methyl-3-oxo-5-(4-propan-2-yloxyphenyl)-5H-[1,3]thiazolo[3,2-a]pyrimidin-2-ylidene]methyl]phenoxy]acetic acid], inhibition was half-maximal at 4.45 µM (IC50).
Turning to `O=C(O)CCCN1C(=O)/C(=C/c2ccc(-c3nc4ccccc4s3)o2)SC1=S` [4-[(5Z)-5-[[5-(1,3-benzothiazol-2-yl)furan-2-yl]methylidene]-4-oxo-2-sulfanylidene-1,3-thiazolidin-3-yl]butanoic acid], the IC50 amounted to 1 µM.
The same measure for `CC1(C)CC(=O)C2=C(C1)c1c(ccc3ccccc13)NC2c1cc([N+](=O)[O-])cc([N+](=O)[O-])c1O` (centres undefined) [MLS000716265]: 2.4 µM; for `O=C1NC(=S)N(c2ccc(F)cc2)C(=O)C1=Cc1ccoc1` [SMR000270574]: 11.3 µM; for `CCS(=O)(=O)C1=NSC2=NC(=O)/C(=C\c3ccc(OS(=O)(=O)c4ccccc4)cc3)C(=N)N21` [MLS-0362442.0001]: 8.4 µM.
In turn, `CC(C)S(=O)(=O)C1=NSC2=NC(=O)/C(=C\c3ccc(-c4cccc(C(=O)O)c4)o3)C(=N)N21` [3-[5-[(Z)-(5-imino-7-oxo-3-propan-2-ylsulfonyl-[1,2,4]thiadiazolo[4,5-a]pyrimidin-6-ylidene)methyl]furan-2-yl]benzoic acid] showed an IC50 of 68 µM.
The same measure for `Cc1ccc(-n2c(O)c(C=Nc3ccccc3-c3n[nH]c(=S)[nH]c3=O)c3ccccc3c2=O)c(C)c1` [SMR000370443]: 9.8 µM; for `N#C/C(=C\C1C=CC(=O)C([N+](=O)[O-])=C1)c1nc2ccccc2s1` (centres undefined): 4.65 µM; for `CS(=O)(=O)C1=NSC2=NC(=O)/C(=C\c3ccc(OS(=O)(=O)c4ccccc4)cc3)C(=N)N21`: 12.7 µM.
Molecule `CCC(Sc1nc2ccsc2c(=O)n1Cc1ccc(C(=O)O)cc1)C(=O)Nc1ccc(C)c(Cl)c1` (centres undefined) registered a concentration for half-maximal inhibition (IC50) of 13.2 µM.
`CC(C)S(=O)(=O)C1=NSC2=NC(=O)/C(=C\c3ccc(-c4ccccc4)o3)C(=N)N21` [(6Z)-5-imino-6-[(5-phenyl-2-furanyl)methylidene]-3-propan-2-ylsulfonyl-[1,2,4]thiadiazolo[4,5-a]pyrimidin-7-one] registered an IC50 of 3.2 µM.
The same measure for `O=C(O)c1ccccc1C(=O)N(Cc1cccc(Oc2ccc(Cl)cc2)c1)[C@H]1CCCc2ccccc21` [2-[[[3-(4-chlorophenoxy)phenyl]methyl-[(1S)-1,2,3,4-tetrahydronaphthalen-1-yl]amino]-oxomethyl]benzoic acid]: 4.1 µM; for `CCOC(=O)c1sc(N2C(=O)C(=O)C(C(=O)c3ccc(C)o3)C2c2cccc([N+](=O)[O-])c2)nc1C` (centres undefined) [ethyl 4-methyl-2-[3-(5-methylfuran-2-yl)carbonyl-2-(3-nitrophenyl)-4-oxidanyl-5-oxidanylidene-2H-pyrrol-1-yl]-1,3-thiazole-5-carboxylate]: 5.1 µM.
The same measure for `O=[N+]([O-])c1cc([N+](=O)[O-])c2oc(-c3ccccc3)c(Br)c2c1O` [3-bromanyl-5,7-dinitro-2-phenyl-1-benzofuran-4-ol]: 2.5 µM; for `COc1ccccc1NS(=O)(=O)c1cccc(-n2c(O)c(C=Nc3ccccc3C(=O)O)c3ccccc3c2=O)c1` [MLS000776209]: 2.3 µM; for `Cc1c2c(=O)n(-c3nc4ccccc4s3)[nH]c2cc(=O)n1Cc1ccccc1` [MLS000762993]: 6.58 µM.
The same measure for `COc1ccc(OC)c(N2C(=O)C(=Cc3ccco3)C(=O)NC2=S)c1` [MLS001197216]: 15 µM.
`COc1cc(/C=C2\SC(=O)N(c3ccccc3Cl)C2=O)cc([N+](=O)[O-])c1O`: the IC50 was 7.5 µM.
The same measure for `O=C1NC(=S)N(c2ccc(F)cc2)C(=O)C1=Cc1ccco1` [(5E)-1-(4-fluorophenyl)-5-(2-furanylmethylidene)-2-sulfanylidene-1,3-diazinane-4,6-dione]: 20 µM.
Molecule `O=C1NC(=S)N(C2CCCCC2)C(=O)C1=CNNC(=O)c1ccccc1O` [N'-[(E)-(1-cyclohexyl-4,6-dioxo-2-sulfanylidene-1,3-diazinan-5-ylidene)methyl]-2-hydroxybenzohydrazide] showed an IC50 of 11.5 µM.
The same measure for `CS(=O)(=O)C1=NSC2=NC(=O)/C(=C\c3cccn3-c3ccc(Cl)cc3)C(=N)N21`: 8.8 µM; for `CC(C)NC(=O)c1sc(=S)n2c1[nH]c(=O)c1ccc(C(=O)NCCc3ccc(Cl)cc3)cc12` [N8-[2-(4-chlorophenyl)ethyl]-5-oxidanylidene-N3-propan-2-yl-1-sulfanylidene-4H-[1,3]thiazolo[3,4-a]quinazoline-3,8-dicarboxamide]: 11.1 µM.
